Test results as given in ChEMBL document CHEMBL1201862, “PubChem BioAssay data set” (2004).
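Values below derive from 48-hour exposures of cells grown in 96-well plates, with endpoints linearly interpolated between the two concentrations bracketing the appropriate inhibition level. GI50 = concentration required for 50% inhibition of growth.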 Activity calls are given as the source filed them. Cut-off read from the data, not from the text of the source: active = GI50 up to about 1.1 µM and inactive = higher.

What was measured:
Assay in all cases: NCI tumour cell line growth inhibition, 48 h
HL-60 = test system: HL-60
HT-29 = test system: HT-29
SK-MEL-28 = test system: SK-MEL-28
T47D = test system: T47D
MDA-MB-435 = test system: MDA-MB-435
SK-MEL-2 = test system: SK-MEL-2
EKVX = test system: EKVX
MDA-N = test system: MDA-N
Hs-578T = test system: Hs-578T
HOP-92 = test system: HOP-92
SK-MEL-5 = test system: SK-MEL-5
BT-549 = test system: BT-549
NCI-H460 = test system: NCI-H460
NCI-H226 = test system: NCI-H226
SW-620 = test system: SW-620
MOLT-4 = test system: MOLT-4
MCF7 = test system: MCF7
M14 = test system: M14
SR = test system: SR

SMILES | GI50 (HL-60) | GI50 (HT-29) | GI50 (SK-MEL-28) | GI50 (T47D) | GI50 (MDA-MB-435) | GI50 (SK-MEL-2) | GI50 (EKVX) | GI50 (MDA-N) | GI50 (Hs-578T) | GI50 (HOP-92) | GI50 (SK-MEL-5) | GI50 (BT-549) | GI50 (NCI-H460) | GI50 (NCI-H226) | GI50 (SW-620) | GI50 (MOLT-4) | GI50 (MCF7) | GI50 (M14) | GI50 (SR)
COC(=O)C(=O)C(C(=O)C(=O)Nc1ccc(C)cc1)c1nc2ccc(C(=O)c3ccccc3)cc2nc1O (centres undefined) | 30.1 µM (inactive) | 7.83 µM (inactive) | > 100 µM (inactive) | 79.4 µM (inactive) | 47.3 µM (inactive) | > 100 µM (inactive) | > 100 µM (inactive) | 43.4 µM (inactive) | 57.3 µM (inactive) | > 100 µM (inactive) | 73.1 µM (inactive) | > 100 µM (inactive) | 70.8 µM (inactive) | 95.5 µM (inactive) | > 100 µM (inactive) | – | – | – | –
CN(C)C(=O)OC(Cn1cncn1)(Cn1cncn1)c1ccc(Cl)cc1Cl | > 100 µM (inactive) | > 100 µM (inactive) | > 100 µM (inactive) | > 100 µM (inactive) | > 100 µM (inactive) | 71.8 µM (inactive) | > 100 µM (inactive) | – | > 100 µM (inactive) | > 100 µM (inactive) | > 100 µM (inactive) | > 100 µM (inactive) | > 100 µM (inactive) | > 100 µM (inactive) | > 100 µM (inactive) | > 100 µM (inactive) | > 100 µM (inactive) | > 100 µM (inactive) | –
CCOC(=O)Cc1cc(=O)oc2cc(O)ccc12 | > 100 µM (inactive) | > 100 µM (inactive) | > 100 µM (inactive) | – | > 100 µM (inactive) | > 100 µM (inactive) | > 100 µM (inactive) | > 100 µM (inactive) | > 100 µM (inactive) | – | > 100 µM (inactive) | > 100 µM (inactive) | > 100 µM (inactive) | > 100 µM (inactive) | > 100 µM (inactive) | > 100 µM (inactive) | – | > 100 µM (inactive) | > 100 µM (inactive)
CC1CCC2C(C)C(=O)OC2C2(C)C(=O)C=CC12 (centres undefined) | 6.82 µM (inactive) | > 10 µM (inactive) | > 10 µM (inactive) | > 10 µM (inactive) | > 10 µM (inactive) | 9.4 µM (inactive) | > 10 µM (inactive) | 6.14 µM (inactive) | > 10 µM (inactive) | > 10 µM (inactive) | > 10 µM (inactive) | – | > 10 µM (inactive) | > 10 µM (inactive) | > 10 µM (inactive) | 6.59 µM (inactive) | 8.79 µM (inactive) | > 10 µM (inactive) | 3.61 µM (inactive)
CNC(=O)c1nnn(Cc2ccccc2)c1S | – | > 100 µM (inactive) | > 100 µM (inactive) | > 100 µM (inactive) | > 100 µM (inactive) | > 100 µM (inactive) | > 100 µM (inactive) | > 100 µM (inactive) | – | – | > 100 µM (inactive) | > 100 µM (inactive) | > 100 µM (inactive) | > 100 µM (inactive) | > 100 µM (inactive) | > 100 µM (inactive) | > 100 µM (inactive) | > 100 µM (inactive) | –
CCOP(=O)(OCC)C(C)(CC)N/C(=N\C1=NC(C(F)(F)F)(C(F)(F)F)N=C(C(F)(F)F)O1)NC(NC(C)=O)(C(F)(F)F)C(F)(F)F (centres undefined) | 17.8 µM (inactive) | 20.7 µM (inactive) | > 100 µM (inactive) | 22.7 µM (inactive) | 32.7 µM (inactive) | 25.5 µM (inactive) | 30.8 µM (inactive) | 52.5 µM (inactive) | 31.8 µM (inactive) | 9.95 µM (inactive) | 14.1 µM (inactive) | – | 35.3 µM (inactive) | 22 µM (inactive) | 56.8 µM (inactive) | 13.2 µM (inactive) | 21.9 µM (inactive) | 22.9 µM (inactive) | –
CC(C)(C)COC1C2(OCCO2)C2CCC1(C)C2(C)C (centres undefined) | 24.8 µM (inactive) | 32.7 µM (inactive) | 87.1 µM (inactive) | 23.8 µM (inactive) | 36 µM (inactive) | 23.4 µM (inactive) | 33.7 µM (inactive) | 43.2 µM (inactive) | 18.8 µM (inactive) | 28.1 µM (inactive) | 30.3 µM (inactive) | – | 33.7 µM (inactive) | 27.4 µM (inactive) | 19.7 µM (inactive) | 21.4 µM (inactive) | 19.1 µM (inactive) | 44 µM (inactive) | 21.6 µM (inactive)
O=C(Cn1c(=O)oc2ccc(C(=O)c3ccc(F)cc3)cc21)c1ccc([N+](=O)[O-])cc1 | 8.2 µM (inactive) | 39 µM (inactive) | 45.3 µM (inactive) | 24.7 µM (inactive) | 19.3 µM (inactive) | 20.2 µM (inactive) | – | 21 µM (inactive) | 20.4 µM (inactive) | 49.3 µM (inactive) | 15.7 µM (inactive) | – | 32.8 µM (inactive) | 27.3 µM (inactive) | 36.7 µM (inactive) | 18.2 µM (inactive) | 31.7 µM (inactive) | 13 µM (inactive) | 12.6 µM (inactive)
Cc1cn(CC2=NCC(C)(C)N2)c(=O)[nH]c1=O | – | > 100 µM (inactive) | > 100 µM (inactive) | > 100 µM (inactive) | – | > 100 µM (inactive) | > 100 µM (inactive) | > 100 µM (inactive) | > 100 µM (inactive) | > 100 µM (inactive) | > 100 µM (inactive) | > 100 µM (inactive) | > 100 µM (inactive) | > 100 µM (inactive) | > 100 µM (inactive) | > 100 µM (inactive) | > 100 µM (inactive) | > 100 µM (inactive) | > 100 µM (inactive)
O=Nn1c2ccccc2c2ccccc21 | 59.3 µM (inactive) | 50.2 µM (inactive) | > 100 µM (inactive) | 66.5 µM (inactive) | 77.4 µM (inactive) | 61.7 µM (inactive) | 22.4 µM (inactive) | – | 46.2 µM (inactive) | 66.2 µM (inactive) | 63.1 µM (inactive) | 73.1 µM (inactive) | 9.86 µM (inactive) | 55.5 µM (inactive) | 66.8 µM (inactive) | 55.1 µM (inactive) | 45 µM (inactive) | 74.1 µM (inactive) | –
COc1cc(/C=C2\C(=O)N(c3cccc([N+](=O)[O-])c3)C(c3ccccc3)S2(=O)=O)cc(OC)c1OC (centres undefined) | 84.7 µM (inactive) | > 100 µM (inactive) | > 100 µM (inactive) | 63.7 µM (inactive) | 32.3 µM (inactive) | > 100 µM (inactive) | > 100 µM (inactive) | 31.1 µM (inactive) | – | > 100 µM (inactive) | > 100 µM (inactive) | > 100 µM (inactive) | > 100 µM (inactive) | > 100 µM (inactive) | 94.4 µM (inactive) | 74 µM (inactive) | 39.7 µM (inactive) | > 100 µM (inactive) | 37.2 µM (inactive)
COc1ccc(C23OCC(Cc4cc(OC)c(OC)cc42)C3CO)cc1OC (centres undefined) | > 100 µM (inactive) | – | > 100 µM (inactive) | > 100 µM (inactive) | > 100 µM (inactive) | > 100 µM (inactive) | > 100 µM (inactive) | – | – | – | > 100 µM (inactive) | > 100 µM (inactive) | > 100 µM (inactive) | > 100 µM (inactive) | > 100 µM (inactive) | > 100 µM (inactive) | > 100 µM (inactive) | > 100 µM (inactive) | 29.8 µM (inactive)
O=C1NC(Cc2ccc(O)cc2)C(=O)NC1Cc1ccc(O)cc1 (centres undefined) | > 100 µM (inactive) | > 100 µM (inactive) | > 100 µM (inactive) | – | > 100 µM (inactive) | > 100 µM (inactive) | > 100 µM (inactive) | 30.1 µM (inactive) | > 100 µM (inactive) | > 100 µM (inactive) | > 100 µM (inactive) | – | > 100 µM (inactive) | > 100 µM (inactive) | > 100 µM (inactive) | > 100 µM (inactive) | > 100 µM (inactive) | > 100 µM (inactive) | > 100 µM (inactive)
N=S(c1ccccc1[N+](=O)[O-])c1ccccc1[N+](=O)[O-] | 0.933 µM (active) | – | 4.28 µM (inactive) | 0.311 µM (active) | – | 3.9 µM (inactive) | 5.04 µM (inactive) | 1.36 µM (inactive) | 4.68 µM (inactive) | 1.89 µM (inactive) | 1.78 µM (inactive) | 1.62 µM (inactive) | – | 4.79 µM (inactive) | – | 1.8 µM (inactive) | 0.129 µM (active) | 2.69 µM (inactive) | –
COc1cc2c(c(OC)c1)/C(=C/Sc1ccccc1)C(=O)N(C(C)(C)C)C2 | 25 µM (inactive) | 22.9 µM (inactive) | 38.9 µM (inactive) | 26.7 µM (inactive) | 22.2 µM (inactive) | 20.2 µM (inactive) | 29.6 µM (inactive) | 23.5 µM (inactive) | – | 1.41 µM (inactive) | 17.5 µM (inactive) | 26 µM (inactive) | – | 51.6 µM (inactive) | 38 µM (inactive) | 21.3 µM (inactive) | 29.8 µM (inactive) | – | 19.8 µM (inactive)
CC(O)=NC(Cc1ccc2ccccc2c1)C(O)=NC(Cc1ccc(Cl)cc1)C(O)=NC(Cc1c[nH]c2ccccc12)C(O)=NC(CO)C(O)=NC(Cc1ccc(O)cc1)C(O)=NC(CCCN=C(N)N)C(O)=NC(CC(C)C)C(O)=NC(CCCN=C(N)N)C(=O)N1CCCC1C(O)=NC(C)C(=N)O (centres undefined) | > 100 µM (inactive) | 35.5 µM (inactive) | – | – | 40.1 µM (inactive) | 13.4 µM (inactive) | 39.5 µM (inactive) | 30.4 µM (inactive) | 47.4 µM (inactive) | 35.5 µM (inactive) | 34.5 µM (inactive) | 12.1 µM (inactive) | 54.7 µM (inactive) | 30.1 µM (inactive) | 76.7 µM (inactive) | > 100 µM (inactive) | 43.8 µM (inactive) | 59.8 µM (inactive) | > 100 µM (inactive)
